{"source": "patent US10273235B2", "about": "“Compositions and methods for inhibiting β-lactamase” (LegoChem Biosciences, Inc., priority 2015, dated 2019)", "assay_type_in_all_cases": "cell-based", "key": {"P. aeruginosa ATCC27853": {"tested_on": "P. aeruginosa ATCC27853", "assay": "BLI potentiation MIC (broth microdilution), P. aeruginosa ATCC27853 (PoxB, AmpC)", "details": "no BLI, incubation 19 h", "procedure": "(§1) MIC90 (μg/mL) is the lowest concentration of an antibiotic that will inhibit the visible growth of 90% of microorganisms after incubation as compared with a control group to which the antibiotic is not treated.\n(§2) MIC values were measured by the broth microdilution method developed by the Clinical and Laboratory Standards Institute (CLSI) (see CLSI M07-A9, Methods for Dilution Antimicrobial Susceptibility Test for Bacteria that Grow Aerobically; Approved Standard-Ninth Edition (2012): CLSI, Villanova, Pa.). The in vitro antibacterial activity was measured with respect to the following 9 clinical isolates: P. aeruginosa (3 strains); K. pneumoniae (6 strains). The in vitro antibacterial activity of selected compounds was measured with respect to the following 15 clinical isolates: K. pneumoniae (15 strains)."}, "P. aeruginosa ARC3506": {"tested_on": "P. aeruginosa ARC3506", "assay": "BLI potentiation MIC, P. aeruginosa ARC3506 (VEB-1, OXA-10, OprD−, AmpC)", "details": "Pseudomonas aeruginosa, ARC3506; no BLI; incubation 19 h; read-out: MIC of LCB10-0200 alone", "procedure": "as §1, §2"}, "P. aeruginosa ARC3514": {"tested_on": "P. aeruginosa ARC3514", "assay": "BLI potentiation MIC, P. aeruginosa ARC3514 (KPC-2, OprD−, AmpC)", "details": "no BLI, incubation 19 h", "procedure": "as §1, §2"}, "K. pneumoniae NDM-506": {"tested_on": "K. pneumoniae NDM-506", "assay": "BLI potentiation MIC, K. pneumoniae NDM-506", "details": "Klebsiella pneumoniae, NDM506; no BLI; incubation 19 h; read-out: MIC of LCB10-0200 alone", "procedure": "as §1, §2"}, "K. pneumoniae 5576": {"tested_on": "K. pneumoniae 5576", "assay": "BLI potentiation MIC, K. pneumoniae 5576 (SHV-11, CMY-2, DHA-1, TEM-1)", "details": "no BLI, incubation 19 h", "procedure": "as §1, §2"}, "K. pneumoniae 3784": {"tested_on": "K. pneumoniae 3784", "assay": "BLI potentiation MIC, K. pneumoniae 3784 (SHV-11, SHV-12, DHA-1)", "details": "no BLI, incubation 19 h", "procedure": "as §1, §2"}, "K. pneumoniae 4248": {"tested_on": "K. pneumoniae 4248", "assay": "BLI potentiation MIC, K. pneumoniae 4248 (SHV-11, CTX-M-15, TEM-1, OXA-1)", "details": "no BLI, incubation 19 h", "procedure": "as §1, §2"}, "K. pneumoniae 5216": {"tested_on": "K. pneumoniae 5216", "assay": "BLI potentiation MIC, K. pneumoniae 5216 (TEM-1A)", "details": "no BLI, incubation 19 h", "procedure": "as §1, §2"}, "K. pneumoniae 7586": {"tested_on": "K. pneumoniae 7586", "assay": "BLI potentiation MIC, K. pneumoniae 7586", "details": "no BLI, incubation 19 h", "procedure": "as §1, §2"}, "K. pneumoniae 6839": {"tested_on": "K. pneumoniae 6839", "assay": "BLI potentiation MIC, K. pneumoniae 6839 (SHV-11, SHV-12, DHA-1)", "details": "no BLI, incubation 19 h", "procedure": "as §1, §2"}, "K. pneumoniae 89": {"tested_on": "K. pneumoniae 89", "assay": "BLI potentiation MIC, K. pneumoniae 89", "details": "no BLI, incubation 19 h", "procedure": "as §1, §2"}, "K. pneumoniae 100": {"tested_on": "K. pneumoniae 100", "assay": "BLI potentiation MIC, K. pneumoniae 100", "details": "Klebsiella pneumoniae, 100; no BLI; incubation 19 h; read-out: MIC of LCB10-0200 alone", "procedure": "as §1, §2"}, "K. pneumoniae 101": {"tested_on": "K. pneumoniae 101", "assay": "BLI potentiation MIC, K. pneumoniae 101", "details": "no BLI, incubation 19 h", "procedure": "as §1, §2"}, "K. pneumoniae 5971(KOX)": {"tested_on": "K. pneumoniae 5971(KOX)", "assay": "BLI potentiation MIC, K. pneumoniae 5971(KOX)", "details": "no BLI, incubation 19 h", "procedure": "as §1, §2"}, "K. pneumoniae KU2": {"tested_on": "K. pneumoniae KU2", "assay": "BLI potentiation MIC, K. pneumoniae KU2", "details": "Klebsiella pneumoniae, no BLI, incubation 19 h, read-out: MIC of LCB10-0200 alone", "procedure": "as §1, §2"}, "K. pneumoniae MP14": {"tested_on": "K. pneumoniae MP14", "assay": "BLI potentiation MIC, K. pneumoniae MP14", "details": "no BLI, incubation 19 h", "procedure": "as §1, §2"}, "K. pneumoniae 5117": {"tested_on": "K. pneumoniae 5117", "assay": "BLI potentiation MIC, K. pneumoniae 5117 (SHV-11, TEM-1)", "details": "no BLI, incubation 19 h", "procedure": "as §1, §2"}, "K. pneumoniae CL5761": {"tested_on": "K. pneumoniae CL5761", "assay": "MIC of strain used for extraction of enzymes, K. pneumoniae CL5761 (KPC-3, TEM-216, SHV-5)", "details": "Klebsiella pneumoniae, CL5761; no BLI; read-out: MIC of LCB10-0200 alone", "procedure": "as §1, §2"}, "E. coli ECO200": {"tested_on": "E. coli ECO200", "assay": "MIC of strain used for extraction of enzymes, E. coli ECO200 (NDM-1, TEM-1, CTX-M-15, EC (AmpC), OXA-2 type)", "details": "Escherichia coli, ECO200, read-out: MIC of LCB10-0200 alone"}, "E. coli K0519020": {"tested_on": "E. coli K0519020", "assay": "MIC of strain used for extraction of enzymes, E. coli K0519020 (CTX-M-15, TEM-1, OXA-1, AmpC (NC_000913))", "details": "Escherichia coli, K0519020; no BLI; read-out: MIC of LCB10-0200 alone"}, "E. coli TOPDXA048": {"tested_on": "E. coli TOPDXA048", "assay": "MIC of strain used for extraction of enzymes, E. coli TOPDXA048 (OXA-48, TEM-116, AmpC (NC_000913))", "details": "Escherichia coli, TOPDXA048, read-out: MIC of LCB10-0200 alone"}, "E. aerogenes K9911729": {"tested_on": "E. aerogenes K9911729", "assay": "MIC of strain used for extraction of enzymes, E. aerogenes K9911729 (CMY-10, TEM-1, SHV-12, AmpC (DQ478697))", "details": "Klebsiella aerogenes, K9911729; no BLI; read-out: MIC of LCB10-0200 alone"}}, "note": "Where “and” joins values, the source holds several entries; their conditions need not be identical. Equal values may be shown once."}
{"smiles": "CC(C)(O/N=C(\\C(=O)N[C@@H]1C(=O)N2C(C(=O)[O-])=C(C[n+]3cnc(N)c(NCCNC(=O)c4cc(=O)c(O)cn4O)c3)CS[C@H]12)c1nc(N)sc1Cl)C(=O)O", "note": "[LCB10-0200]", "values": [{"measurement": "MIC", "setting": "P. aeruginosa ATCC27853; Pseudomonas aeruginosa, ATCC27853, 19 h, read-out: MIC of LCB10-0200 alone", "value": 0.25, "unit": "µg/mL"}, {"measurement": "MIC of LCB10-0200 alone", "setting": "P. aeruginosa ATCC27853", "value": 0.5, "unit": "μg/mL"}, {"measurement": "MIC", "setting": "P. aeruginosa ARC3506", "value": 2, "unit": "µg/mL"}, {"measurement": "MIC", "setting": "P. aeruginosa ARC3514; Pseudomonas aeruginosa, ARC3514, 19 h, read-out: MIC of LCB10-0200 alone", "value": 0.25, "unit": "µg/mL"}, {"measurement": "MIC of LCB10-0200 alone", "setting": "P. aeruginosa ARC3514", "value": 0.5, "unit": "μg/mL"}, {"measurement": "MIC", "setting": "K. pneumoniae NDM-506", "value": "> 64", "unit": "µg/mL"}, {"measurement": "MIC", "setting": "K. pneumoniae 5576; Klebsiella pneumoniae, 5576, 19 h, read-out: MIC of LCB10-0200 alone", "value": "> 64", "unit": "µg/mL"}, {"measurement": "MIC of LCB10-0200 alone", "setting": "K. pneumoniae 5576", "value": "64 μg/mL and 32 μg/mL"}, {"measurement": "MIC", "setting": "K. pneumoniae 3784; Klebsiella pneumoniae, 3784, 19 h, read-out: MIC of LCB10-0200 alone", "value": 32, "unit": "µg/mL"}, {"measurement": "MIC of LCB10-0200 alone", "setting": "K. pneumoniae 3784", "value": 64, "unit": "μg/mL"}, {"measurement": "MIC", "setting": "K. pneumoniae 4248; Klebsiella pneumoniae, 4248, 19 h, read-out: MIC of LCB10-0200 alone", "value": 2, "unit": "µg/mL"}, {"measurement": "MIC of LCB10-0200 alone", "setting": "K. pneumoniae 4248", "value": 4, "unit": "μg/mL"}, {"measurement": "MIC", "setting": "K. pneumoniae 5216; Klebsiella pneumoniae, 5216, 19 h, read-out: MIC of LCB10-0200 alone", "value": "> 64", "unit": "µg/mL"}, {"measurement": "MIC of LCB10-0200 alone", "setting": "K. pneumoniae 5216", "value": "64 μg/mL and 32 μg/mL"}, {"measurement": "MIC", "setting": "K. pneumoniae 7586; Klebsiella pneumoniae, 7586, 19 h, read-out: MIC of LCB10-0200 alone", "value": 4, "unit": "µg/mL"}, {"measurement": "MIC of LCB10-0200 alone", "setting": "K. pneumoniae 7586", "value": 2, "unit": "μg/mL"}, {"measurement": "MIC", "setting": "K. pneumoniae 6839; Klebsiella pneumoniae, 6839, 19 h, read-out: MIC of LCB10-0200 alone", "value": 32, "unit": "µg/mL"}, {"measurement": "MIC of LCB10-0200 alone", "setting": "K. pneumoniae 6839", "value": 16, "unit": "μg/mL"}, {"measurement": "MIC", "setting": "K. pneumoniae 89; Klebsiella pneumoniae, 89, 19 h, read-out: MIC of LCB10-0200 alone", "value": 0.125, "unit": "µg/mL"}, {"measurement": "MIC of LCB10-0200 alone", "setting": "K. pneumoniae 89", "value": 0.0625, "unit": "μg/mL"}, {"measurement": "MIC", "setting": "K. pneumoniae 100", "value": 0.0625, "unit": "µg/mL"}, {"measurement": "MIC", "setting": "K. pneumoniae 101; Klebsiella pneumoniae, 101, 19 h, read-out: MIC of LCB10-0200 alone", "value": 16, "unit": "µg/mL"}, {"measurement": "MIC of LCB10-0200 alone", "setting": "K. pneumoniae 101", "value": 32, "unit": "μg/mL"}, {"measurement": "MIC", "setting": "K. pneumoniae 5971(KOX); Klebsiella pneumoniae, 19 h, read-out: MIC of LCB10-0200 alone", "value": 32, "unit": "µg/mL"}, {"measurement": "MIC of LCB10-0200 alone", "setting": "K. pneumoniae 5971(KOX)", "value": 64, "unit": "μg/mL"}, {"measurement": "MIC", "setting": "K. pneumoniae KU2", "value": 32, "unit": "µg/mL"}, {"measurement": "MIC", "setting": "K. pneumoniae MP14; Klebsiella pneumoniae, MP14, 19 h, read-out: MIC of LCB10-0200 alone", "value": 0.125, "unit": "µg/mL"}, {"measurement": "MIC of LCB10-0200 alone", "setting": "K. pneumoniae MP14", "value": 0.25, "unit": "μg/mL"}, {"measurement": "MIC", "setting": "K. pneumoniae 5117; Klebsiella pneumoniae, 5117, 19 h, read-out: MIC of LCB10-0200 alone", "value": 0.125, "unit": "µg/mL"}, {"measurement": "MIC of LCB10-0200 alone", "setting": "K. pneumoniae 5117", "value": 0.25, "unit": "μg/mL"}, {"measurement": "MIC", "setting": "K. pneumoniae CL5761", "value": 32, "unit": "µg/mL"}, {"measurement": "MIC", "setting": "E. coli ECO200", "value": "> 64", "unit": "µg/mL"}, {"measurement": "MIC", "setting": "E. coli K0519020", "value": 64, "unit": "µg/mL"}, {"measurement": "MIC", "setting": "E. coli TOPDXA048", "value": 0.25, "unit": "µg/mL"}, {"measurement": "MIC", "setting": "E. aerogenes K9911729", "value": 2, "unit": "µg/mL"}]}
